According to patent publication US20050101595A1, “N-containing cycloalkyl-substituted amino-thiazole derivatives and pharmaceutical compositions for inhibiting cell proliferation and methods for their use” (PFIZER INC., priority 2003, published 2005):
Where a name gives a salt, the structure may show the parent alone. Read-outs that look alike come from different tables or passages of the source.

What was measured:
HCT-116 cell line = assay: Inhibition of cell growth, tetrazolium salt (MTT) assay; format: cell-based; settings: for IC50: Homo sapiens, HCT-116, 120 h, MTT, three to five days, read-out: HCT-116 IC50; for HCT-116 % Inhibition at 0.25 μM: 0.25 μM compound
Method in brief: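 Growth inhibition by MTT reduction at 540 nm (0.2 mg/mL, 4 h at 37° C, formazan dissolved in DMSO), normalized to cells given only 0.5% v/v DMSO. HCT-116 cultures in McCoy's 5A were dosed 4 h post-plating and kept three to five days at 37° C, 5% CO2.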

CDK2/Cyclin A = CDK2/Cyclin A (Homo sapiens, UniProt P24941); assay: Inhibition of CDK2/Cyclin A Retinoblastoma Kinase Activity; format: biochemical; settings: for Ki: apparent Ki, CDK2/proteolyzed cyclin A, Rb fragment substrate, 25 μM ATP; for CDK2 % Inhibition At 0.03 μM: Table 2
Method in brief: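 Baculovirus-expressed CDK2 complexed with proteolyzed cyclin A (10 or 19 nM), Rb fragment substrate, 25 μM [32P/33P]ATP, HEPES pH 7.4, 30 °C for 60 or 75 min under initial-rate conditions. Filter capture and phosphorimager readout; apparent Ki fitted to competitive or tight-binding competitive inhibition.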

[1] = molecular target: human CDK4 and genetically truncated (1-264) cyclin D3 (Homo sapiens, UniProt P11802); assay: Inhibition of CDK4/Cyclin D Retinoblastoma Kinase Activity; format: biochemical; settings: for Ki: apparent Ki, CDK4/truncated cyclin D3, Rb fragment substrate, 25 μM ATP
human CDK4 and genetically truncated (1-264) cyclin D3, sequence (P11802 whole entry, the tested form may be a part): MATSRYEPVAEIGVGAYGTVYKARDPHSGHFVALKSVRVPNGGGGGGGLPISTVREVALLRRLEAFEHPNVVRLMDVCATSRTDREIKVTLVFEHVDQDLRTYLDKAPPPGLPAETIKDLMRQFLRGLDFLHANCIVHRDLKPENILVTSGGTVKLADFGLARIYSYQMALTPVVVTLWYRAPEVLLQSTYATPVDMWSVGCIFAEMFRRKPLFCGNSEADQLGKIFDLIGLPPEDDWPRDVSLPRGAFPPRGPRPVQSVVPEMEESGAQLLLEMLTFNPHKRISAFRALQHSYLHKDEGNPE
human CDK4 and genetically truncated (1-264) cyclin D3, sequence (P30281 1-264 partner): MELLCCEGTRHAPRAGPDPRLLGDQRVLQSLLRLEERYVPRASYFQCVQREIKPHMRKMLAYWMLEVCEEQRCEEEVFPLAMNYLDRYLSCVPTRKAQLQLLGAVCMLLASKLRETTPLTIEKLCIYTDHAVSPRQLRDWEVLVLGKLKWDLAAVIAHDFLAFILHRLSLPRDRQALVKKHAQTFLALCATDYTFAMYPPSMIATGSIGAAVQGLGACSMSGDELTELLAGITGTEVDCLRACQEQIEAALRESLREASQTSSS
Method in brief: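 Human CDK4/truncated cyclin D3 (1-264) complex from baculovirus-infected insect cells, 5 nM, phosphorylating Rb fragment (residues 386-928, His-tagged) with 25 μM [32/33P]ATP in HEPES pH 7.4, MgCl2, 2% DMSO at 30° C. for 20 min (60 min for tight binders). Filter-captured radioactivity by phosphorimager; apparent Ki from competitive or tight-binding fits.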

Compound	IC50 (HCT-116 cell line; first HCT-116 column (c4))	IC50 (HCT-116 cell line; second HCT-116 column (c5))	Ki (CDK2/Cyclin A)	Ki [1]	HCT-116 % Inhibition at 0.1 μM (HCT-116 cell line; HCT-116 cells, at 0.1 μM)	HCT-116 5 Inhibition at 0.25 μM (HCT-116 cell line; HCT-116 cells)	CDK2 % Inhibition at 0.03 μM (CDK2/Cyclin A; at 0.03 μM)	CDK4 % Inhibition at 0.03 μM ([1]; at 0.03 μM)	other results
Nc1nc(NC2CCN(C(=O)c3ccc(F)c(Cl)c3)CC2)sc1C(=O)c1c(F)cccc1F [Example D8, 1-(4-Amino-2-{1-[1-(3-chloro-4-fluoro-phenyl)-methanoyl]-piperidin-4-ylamino}-thiazol-5-yl)-1-(2,6-difluoro-phenyl)-methanone]	97 nM	250 nM	99 nM	9.6 nM					
CCOC(=O)CC[C@H](NC(=O)N1CCC(Nc2nc(N)c(C(=O)c3c(F)cccc3F)s2)CC1)C(=O)OCC [Example O80]									HCT-116 % Inhibition at 0.25 μM (HCT-116 cell line; HCT-116, Table 2): 46%; CDK2 % Inhibition At 0.03 μM (CDK2/Cyclin A; 0.03 μM compound): 23%; CDK4 % Inhibition at 0.03 μM ([1]; 0.03 μM compound, Table 2): 15%
N#C/C(=C\c1cccc(O)c1)C(=O)N1CCC(Nc2nc(N)c(C(=O)c3c(F)cccc3F)s2)CC1 [Example D13, 12(Z)-(1-{4-[4-Amino-5-(2,6-difluoro-benzoyl)-thiazol-2-ylamino]-piperidin-1-yl}-methanoyl)-3-(3-hydroxy-phenyl)-acrylonitrile Trifluoroacetic Acid Salt]	1300 nM	5000 nM	24 nM	1.8 nM					
Nc1nc(NC2CCN(S(=O)(=O)c3ccc(Oc4ccncc4)cc3)CC2)sc1C(=O)c1c(F)cccc1F [Example P85]									HCT-116 % Inhibition at 0.1 μM (HCT-116 cell line; 0.1 μM compound, HCT-116, Table 3): 12%; HCT-116 % Inhibition at 0.25 μM (HCT-116 cell line; HCT-116, Table 3): 26%; CDK2 % Inhibition at 0.03 μM (CDK2/Cyclin A; 0.03 μM compound, Table 3): −28%; CDK4 % Inhibition at 0.03 μM ([1]; 0.03 μM compound, Table 3): 14%
Cc1cc(C)c2c(c1C(=O)N1CCC(Nc3nc(N)c(C(=O)c4c(F)cccc4F)s3)CC1)CC(C)(C)C2=O [Example R29]					0%	36	2%	23%	
Nc1nc(NC2CCN(S(=O)(=O)c3ccc(-c4c[nH]cn4)cc3)CC2)sc1C(=O)c1c(F)cccc1F [Example F30, 1-(4-Amino-2-{1-[4-(1H-imidazol-4-y)-benzenesulfonyl]-piperidin-4-ylamino}-thiazol-5-yl)-1-(2,6-difluoro-phenyl)-methanone Trifluoroacetic Acid Salt]	170 nM	1700 nM	0.25 nM	0.32 nM					
Nc1nc(NC2CCN(C(=O)C3Cc4ccccc43)CC2)sc1C(=O)c1c(F)cccc1F (centres unmarked) [Example R94]					0%	42	10%	−5%	
Nc1nc(NC2CCN(C(=O)c3ccc(-c4ccccc4)cc3)CC2)sc1C(=O)c1c(F)cccc1F [Example R149]					11%	43	28%	51%	
Nc1nc(NC2CCN(S(=O)(=O)CCCN3CCCCC3)CC2)sc1C(=O)c1c(F)cccc1F [Example K7, 1-(4-Amino-2-{1-[3-(piperidin-1-yl)propane-1-sulfonyl]-piperidin-4-ylamino}-thiazol-5-yl)-1-(2,6-difluoro-phenyl)-methanone.]	210 nM	1700 nM	2 nM	2.9 nM					
Nc1nc(NC2CCN(C(=O)c3cccc(C(F)(F)F)c3)CC2)sc1C(=O)c1c(F)cccc1F [Example R139]					20%	62	50%	75%	
Nc1nc(NC2CCN(C(=O)NCCc3cccs3)CC2)sc1C(=O)c1c(F)cccc1F [Example O65]									HCT-116 % Inhibition at 0.25 μM (HCT-116 cell line; HCT-116, Table 2): 44%; CDK2 % Inhibition At 0.03 μM (CDK2/Cyclin A; 0.03 μM compound): 22%; CDK4 % Inhibition at 0.03 μM ([1]; 0.03 μM compound, Table 2): −7%
COC(=O)c1ccc(C(=O)N2CCC(Nc3nc(N)c(C(=O)c4c(F)cccc4F)s3)CC2)cc1 [Example C4, 4-{4-[4-Amino-5-(2,6-difluoro-benzoyl)-thiazol-2-ylamino]-piperidine-1-carbonyl}-benzoic Acid Methyl Ester]	800 nM	2000 nM	81 nM	11 nM					
COC(=O)[C@H](CC(C)C)NC(=O)N1CCC(Nc2nc(N)c(C(=O)c3c(F)cccc3F)s2)CC1 [Example O77]									HCT-116 % Inhibition at 0.25 μM (HCT-116 cell line; HCT-116, Table 2): 43%; CDK2 % Inhibition At 0.03 μM (CDK2/Cyclin A; 0.03 μM compound): 24%; CDK4 % Inhibition at 0.03 μM ([1]; 0.03 μM compound, Table 2): 8%
CCC(C)CC(=O)N1CCC(Nc2nc(N)c(C(=O)c3c(F)cccc3F)s2)CC1 (centres unmarked) [Example R171]					0%	46	23%	39%	
